Here are results for six molecules from patent US7294463B2, “Method of screening for compounds that modulate activity of a regulatory sequence of the β-2 subunit of a neuronal nicotinic acetylcholine receptor” (Institut Pasteur, priority 1994, dated 2007).

One experiment concerns the target high affinity sites. The following applies: read-out: KD of high affinity sites; equilibrium binding experiments; cited from earlier work.
Experiment [1] has as its system high affinity nAChR. The following applies: 3H-nicotine 4 nM, brain sections of β2−/− mice.
Description: (§2) Following incubation, sections were rinsed 2×2 min. in ice cold PBS and briefly rinsed in ice cold water. Slides were exposed for 60 days to Hyperfilm ^3H.
Experiment [2] has as its target high affinity nAChR (Mus musculus, UniProt O70174+Q9ERK7). The following applies: 3H-nicotine 4 nM, all brain areas of β2+/− mice.
Description: as §2
Experiment [3] concerns β2−/− mice and their wildtype siblings. The protocol: METHODS, Passive avoidance test was performed as described in the text, according to Nordberg and Bergh^20 and Faiman et al^20. Nicotine (bitartrate, Sigma) was freshly dissolved in PBS. IP injection of the same volume of either nicotine or vehicle immediately followed footshock during the training trial.
Retention of an inhibitory avoidance response was assessed using the passive avoidance test, which was also chosen for its pharmacological sensitivity to nicotine administration ^19,20. This test consisted of a training trial in which the mouse was placed in a well-lighted chamber of a shuttle box, and the latency to enter the adjacent dark chamber was measured. Upon entry to the dark chamber, a mild, inescapable foot shock was delivered, and vehicle or nicotine (10 μg/kg) was injected into the mouse. Twenty-four (24) hours later, retention was assessed by measuring the latency to enter the dark chamber.

Experiment [4] concerns neurons of the anterior thalamus. In kind it is cell-based, mouse. As for the experimental part: (§1) METHODS, Coronal slices were obtained from the thalamus of 8-12 day old mice using a Dosaka slicer in ice cold ACSF medium (125 mM NaCl/26 mM NaHCO3/25 mM Glucose/1.25 mM NaH2PO4/2.5 mM KCl 2.5/2 mM CaCl2/1 mM MgCl2 pH 7.3). Slices were maintained in the same medium for 1-8 hours. Cells in slices were visualized through a Zeiss microscope. Whole cell recordings were obtained with 2-4 MOhm hard-glass pipettes containing 150 mM CsCl/10 mM EGTA/10 mM HEPES/4 mM di-sodium ATP/4 mM MgCl2 pH adjusted to 7.3 with KOH. Five to ten sec. pulses of drug were applied rapidly to the cell through a […] pipette above the slice, fed by gravity with a solution containing 150 mM NaCl/10 mM Hepes/2.5 mM KCl/2 mM CaCl2/1 mM MgCl2. Recordings were made in the presence of CNQX (5 μM) and of the GABAA antagonist SR-95531 (10 μM). Currents were recorded with an Axopatch ID (Axon Instrument) patch amplifier, digitized on a Compaq PC and further analyzed with the PClamp program (Axon Instrument).

The test system of another experiment is neurons in the MHb. Put plainly: Patch clamp recording of nicotine evoked currents, medial habenula (MHb). In kind it is cell-based, mouse. The following applies: for Agonist potency rank order: wild type. The protocol:
as §1
Background: The patch-clamp technique gives a direct electrical read-out from membranes.

In experiment [5] the test system is nuclear extracts from neuroblastomas or fibroblasts. Put plainly: Gel shift assay, competition against 32P labelled E-D probe. In kind it is binding. The settings on record: excess of unlabelled competitor. The text has this:
FIG. 7: Gel shift experiment. Autoradiogram of the mobility shift experiment. The probe used was a ^32P labelled double stranded E-D oligonucleotide. This oligonucleotide carries only the E-Box/Dyad element, whereas the oligonucleotide S-E carries the Sp1 binding site as well as the E-Box/Dyad element. The competitor oligonucleotides were used in 10- and 100-fold molar excess, except for S-E that was used only in 100-fold molar excess.
Oligonucleotides were labeled either with Y[^32P]ATP and T4 polynucleotide kinase, or with ∝[^32P]CTP and Klenow enzyme as in Current Protocols in Molecular Biology. Nuclear extracts were prepared from ˜10^7 cells as described (Bessis et al., 1993). For binding, […] of labeled oligonucleotide was mixed with 0.5 μg of protein extract in 10 mM Hepes pH 8, 10% glycerol], 0.1 mM EDTA, 0.1 M NaCl, 2 mM DTT, 0.1 mg/ml BSA, 4 mM MgCl2, 4 mM spermidine, 1 mM PMSF, 1 μg polydldC in 20 μl. The reaction was incubated for 10 minutes on ice. The DNA-protein complexes were then analyzed on a 7% polyacrylamide gel.
To further understand the role of the E-Box in the regulation of the promoter, we investigated the protein complexes able to interact with this sequence. Gel shift assays were performed using the 33 bp sequence (nt-135 to -103, oligonucleotide E-D) as a probe. […]
For orientation: In EMSA bound probe runs differently from free probe, usually more slowly.

Like-named read-outs stand apart in the source and are kept apart here.

Sequence of high affinity nAChR (Mus musculus, UniProt O70174+Q9ERK7) (Q9ERK7 26-501): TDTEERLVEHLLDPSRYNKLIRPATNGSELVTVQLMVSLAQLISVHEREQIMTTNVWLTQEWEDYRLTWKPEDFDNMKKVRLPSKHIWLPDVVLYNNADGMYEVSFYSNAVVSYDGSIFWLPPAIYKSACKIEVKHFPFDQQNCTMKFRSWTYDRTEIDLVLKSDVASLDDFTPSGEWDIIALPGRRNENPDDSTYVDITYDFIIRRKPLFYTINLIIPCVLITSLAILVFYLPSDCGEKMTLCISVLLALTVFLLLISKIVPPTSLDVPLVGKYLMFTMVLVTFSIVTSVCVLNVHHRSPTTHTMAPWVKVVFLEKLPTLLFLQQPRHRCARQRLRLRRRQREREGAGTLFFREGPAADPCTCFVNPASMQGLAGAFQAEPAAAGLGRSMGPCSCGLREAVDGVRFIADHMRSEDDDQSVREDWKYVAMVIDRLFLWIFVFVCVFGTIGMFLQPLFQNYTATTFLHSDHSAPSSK
Sequence of high affinity nAChR (Mus musculus, UniProt O70174+Q9ERK7) (O70174 31-629): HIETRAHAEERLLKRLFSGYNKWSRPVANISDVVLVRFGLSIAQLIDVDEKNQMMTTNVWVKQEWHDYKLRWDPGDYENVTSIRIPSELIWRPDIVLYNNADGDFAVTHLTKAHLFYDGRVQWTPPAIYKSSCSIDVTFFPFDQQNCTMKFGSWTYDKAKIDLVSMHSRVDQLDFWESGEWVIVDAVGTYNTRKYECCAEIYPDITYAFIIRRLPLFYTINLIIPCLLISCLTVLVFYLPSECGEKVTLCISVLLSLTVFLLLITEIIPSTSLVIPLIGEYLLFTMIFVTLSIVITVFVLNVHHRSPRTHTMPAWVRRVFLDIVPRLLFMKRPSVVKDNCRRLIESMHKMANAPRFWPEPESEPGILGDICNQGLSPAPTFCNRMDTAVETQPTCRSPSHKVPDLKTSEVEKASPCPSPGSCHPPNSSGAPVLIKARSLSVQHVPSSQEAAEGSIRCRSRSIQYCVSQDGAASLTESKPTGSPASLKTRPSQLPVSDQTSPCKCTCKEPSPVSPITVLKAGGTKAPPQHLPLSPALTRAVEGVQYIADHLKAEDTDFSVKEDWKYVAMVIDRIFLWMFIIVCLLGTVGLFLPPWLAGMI

The term Kd denotes the concentration at which binding is half-saturated. Consider `CN1CCCC1c1cccnc1` (stereo not shown) [nicotine], for which, on high affinity sites, the Kd is roughly 0.01 µM. In addition, the “Nicotine binding in situ” value with high affinity nAChR [1] is “completely abolished”. Also, the “Reduction of nicotine binding in situ” value at high affinity nAChR [2] is “approximately 50%”. Also, the “Upward shift of retention latency curve” value in experiment [3] (nicotine 10 μg/kg IP post-training, retention after 24 hours, wild type mice, p<0.01) is “approximately 80 sec”. Moreover, the “Effect of nicotine administration on retention” value in experiment [3] (nicotine 10 μg/kg, mutant (β2−/−) mice) is reported as “completely ineffective”. Further, the Average inward current in experiment [4] (10 μM nicotine, wild type animals) is 155+/−73 pA; in the experiment with neurons in the MHb (wild type mice, MHb), 505+/−132 pA. In addition, the “Dose required for a reproducible response” value in experiment [4] (anterior thalamic neurons) worked out at 1 µM. For the same molecule, in experiment [4] (wild type, anterior thalamus), the “Agonist order of the response” value was “nicotine>DMPP>cytisine”. For the same molecule, in experiment [4] (β2−/− mice, 100% of neurons tested), the “Response of anterior thalamic neurons to nicotine” value was “completely abolished”. For the same molecule, the “Response of cells in the MHb to nicotine” value in the experiment with neurons in the MHb (mutant mice) is given as “maintained”. Further, the “Agonist potency rank order” value in the experiment with neurons in the MHb (MHb) is reported as “cytisine=nicotine>DMPP”.

For the molecule `C[N+]1(C)CCN(c2ccccc2)CC1` [DMPP], the “Agonist order of the response” value in experiment [4] (wild type, anterior thalamus) was “nicotine>DMPP>cytisine”. The “Agonist potency rank order” value in the experiment on neurons in the MHb (MHb) is recorded as “cytisine=nicotine>DMPP”.

In the case of “5′-CCTCCCCTAGTAGTTCCTCAGGTGTTCCCTAGA [Mut.E]”, the “Competition for complexes formed with labelled E-D probe” value in experiment [5] was “no competition”.

On to `O=c1cccc2n1C[C@@H]1CNC[C@H]2C1` [cytisine], for which the “Agonist order of the response” value in experiment [4] is recorded as “nicotine>DMPP>cytisine”. Also, the “Agonist potency rank order” value in the experiment with neurons in the MHb (MHb) is “cytisine=nicotine>DMPP”.

Take `CO[C@H]1CC=C2CCN3CCC4=C(CC(=O)OC4)[C@]23C1` [dihydro-β-erythroidine]: the “Effect on the nicotine evoked inward current” value in experiment [4] (1 μM antagonist, 10 μM nicotine, wild type) is “blocked”.

As to “5′-TCCTCCCCTAGTAGTTCCACTTGTGTTCCCTAG [E-D]”, the “Competition for complexes formed with labelled E-D probe” value in experiment [5] is recorded as “fully displaced”.
